Measurements reported in patent US10471054B2, “CDK1 inhibitors of acetyl chrysin mannich base derivatives, synthesis and use thereof” (priority 2016, dated 2019).
≈ marks a conversion by molar mass, not a printed value. Like-named read-outs stand apart in the source and are kept apart here. Blank lines part the entries; values can stand above or below the molecule they belong to.

Experiments:
[1] = Solubility in Octanol, water and pH media; assay type: physicochemical
Method: (§1) The solubility and log P of acetyl ChrysinMannich base derivatives see TABLE 1.
(§2) CH-j is pKa 5.3, log P 1.63 in Octanol/Water at 37° C. […] (BA-j 77m/ml). CH-j belongs to BCS II (low solubility, high permeability) and solubility presents the pH dependence. […] CH-j is a pH dependent fast release. […] It is speculated that CH-j has more appropriate log P and solubility with more likely entering tissue cells than others solubility acetyl Chrysin Mannich base derivatives.
(§3) (about 20 times BA-f 277 μg/ml) and 564 μg/ml in water at 37° C. (about 1000 times BA-f 0.53m/ml). CH-f is BCS I (high solubility and permeability) and solubility presents the pH dependence. It is speculated that CH-f has more appropriate log P and solubility with entering systemic (blood system and tissue cells) than others solubility acetyl Chrysin Mannich base derivatives.

log P in Octanol/Water = assay type: physicochemical; conditions: octanol/water, Octanol/Water at 37° C.
Method: as §1, §2, §3

pKa = assay type: physicochemical
Method: as §2, §3

[2] = test system: PBMCs, activated lymphocytes, human normal Liver cells; assay: H2O2 level in blood and normal cells, PF1-H2O2 fluorescent probe; assay type: cell-based; conditions: CH-j: PBMCs and activated lymphocytes; BA-j: activated lymphocyte
Method: The cells are cancer cells (MCF-7, GBC-823, Hep G2) and normal cells (Liver, COS-7, PBMCs). According to the literature [Scientific Reports, 2015, 5: 13626; Anti-cancer Agents in Medicinal Chemistry, 2016, 16: 914-924.], in vitro cultured cells was given to CH-j 25 μM for 3.5 h, added PF1-H2O2 selective fluorescence probe 10 μM for 0.5 h and detected the concentration of H2O2 in cells, and performed fluorescence imaging by results shown in FIG. 1.
FIG. 1-3, FIG. 1-4, The fluorescence imaging by PF1-H2O2 10 μM is that CH-j […] for 4 h affected the level of H2O2 in MCF-7, GBC-823, Hep G2 and Liver.
FIG. 1-3: CH-j/BA-j affects the levels of H2O2 in blood cells, X-coordinate is the concentration of CH-j/BA-j concentration (μM), and Y-coordinate the intracellular levels of H2O2 (μM) for 4 h with PF1-H2O2 10 μM by Fluorescence Microplater Reader (488 nm/525 nm).

H-460 = assay: Anti-cancer cells proliferation activity (MTT, 48 h); assay type: cell-based; conditions: Homo sapiens, NCI-H460, H-460, MTT
Excerpt: (§4) Anti-cancer cells proliferationactivity of in vitro CH-j and CH-f were shown in TABLE 2 for the results of the screening of 5 cancers cells.

Hep G2 = assay: as above; assay type: cell-based; conditions: Homo sapiens, HepG2
Excerpt: as §4

MCF-7 [3] = assay: as above; assay type: cell-based; conditions: Homo sapiens, MCF7, MCF-7, MTT
Excerpt: as §4

PC-3 = assay: as above; assay type: cell-based; conditions: Homo sapiens, PC-3, MTT
Excerpt: as §4

BGC-823 = assay: as above; assay type: cell-based; conditions: Homo sapiens, BGC-823, MTT
Method: as §4
FIG. 2: The initial screening results of the anticancer activity of BGC-823 (MTT, for 48 h), and X-coordinate is the drug concentration (MTT, for 48 h), and Y-coordinate the cell survival rate (%) in vitro.

[4] = test system: 5 cancers cells (MCF-7, H-460, BGC-823, PC-3, Hep G2); assay: Anti-cancer cells proliferation activity, average of 5 cancer cells; assay type: cell-based; conditions: for IC50: average of 5 cancer cells
Excerpt: as §4

MCF-7 [5] = assay: Autophagy in MCF-7; assay type: cell-based; conditions: 50 μM for 9 h and 24 h
[6] = Protein binding rate and reversible binding rate; assay type: in vitro ADME; conditions: plasma proteins
Method: (§5) The combination of drugs and plasma proteins is usually reversible, and the affinity strength is determined by the reversible binding rate of the drug-protein complex. Only free drugs can spread to the tissue through the lipid membrane. By modifying the structure of the drug, the effect of the drug on the target site can be improved by improving the reversible binding rate of the drug-protein complex.
(§6) The acidic part of polyphenol hydroxyl group is combined with lysine alkaline site in albumin structure. The protein binding rate and reversible binding rate of CH-j see TABLE 2.

plasma proteins = assay: Protein binding rate and reversible binding rate; assay type: in vitro ADME
Method: as §5, §6

[7] = Pharmacokinetics by oral in monkey (urine drug concentration-time curve); assay type: in vivo; conditions: monkey (n = 6), 3 mg/kg in Table 4, 5 mg/kg in text
Method: Chromatographic conditions and the system applies: with C18 chromatographic column (acid the tall secretory effect, 5 μm, 4.6*150 mm), in acetonitrile-methanol-water-mesylate (25:20:55:0.15) as mobile phase, detection UV 283 nm, the velocity 1 ml/min, and the sample volume 20 μl. The theoretical plate number is not less than 2000 according to CH-j peak.
Sample solution: after the macaques were drugged, the catheter was inserted. The urine by oral CH-j 5 mg/kg is collected, added the methanol at 1:4 (v:v), centrifuge and remove the liquid to measure. Control solution is CH-j methanol solution 5 μg/ml. The log P of CH-j is larger, the fat solubility strong, and absorption distribution in the body very rapid, the urine drug concentration-time curve consistent with the typical two-compartment model. Tmax1, 1.3 h, Cmax1 is […]. […] The apparent distribution volume (Vd) 42 L, mainly distributed in body fluid (BA-j Vd 12.6 L, mainly distributed in blood. See Fitoterapia, 2015, 107: 36-34)
FIG. 5: The concentration of urine drug concentration-time curve in monkey (n=6) by CH-j oral 5 mg/kg, X-coordinate is oral CH-j time (h) and Y-coordinate is the concentration of CH-j (μM).

[8] = Tissue distribution in rat, 2 h; assay type: in vivo; conditions: rat
Method: The distribution results of CH-j tissue distribution were shown in FIG. 6, when CH-j 100 mg/kg rat by venous intravenous (i.v.) or oral (p.o.) 2 h. […] CH-j by oral in the stomach concentration of the large, about 2 time higher than other tissues. […] Compared with the intravenous administration, the oral administration was completely absorbed and the bioavailability was close to 100%.
FIG. 6: 2 h distribution of the drug (100 mg/kg) by CH-j rats: Y-coordinate is the concentration of CH-j (μg/g), by intravenous (i.v.), by oral (p.o.).

CDK1 = CDK1 (Homo sapiens, UniProt P06493); assay: CDK1 inhibition activity; assay type: biochemical; conditions: for CDK1 50% inhibitory concentration: read-out: inhibiting CDK1 CC50
[9] = BA-j, see Fitoterapia, 2015; cited from earlier work
[10] = Pharmacokinetics by oral in monkey (urine drug concentration-time curve); assay type: in vivo; conditions: rhesus, monkey (n = 6), 3 mg/kg
[11] = oral, liver first pass effect; cited from earlier work
[12] = in vivo; cited from earlier work
MCF-7 and COS-7 = assay: NO level, Rh-NO fluorescent probe imaging; assay type: cell-based; conditions: 25 μM for 12, 24, 48 h, Rh-NO probe 5 μM
Method: [Organic Letters, 2008, 10: 2357-2360] […] This is because of cycloalkylamine-methyl releasing NO by Cope reaction, and the higher level of NO 4-methylpiperazine than 4-hydroxypiperidine.
FIG. 1-6: The performed fluorescence imaging with Rh—NO 5 μM, and add 25 μM of CH-j and CH-f for 12, 24, 48 h, affected the level of NO for 12, 24 and 48 h in MCF-7 and COS-7 by Single beam electron confocal fluorescence microscope (488/604 nm).

MCF-7 [13] = assay: Hoechst 33258 fluorescence staining, apoptosis; assay type: cell-based; conditions: 0, 5, 10, 20 μM for 24 h
Method: Hoechst 33258 is an active fluorescent dye with DNA specific binding, which is mainly combined with base area of DNA, which emits blue fluorescence when stimulated by ultraviolet light. The living cells emit uniform fluorescence, the apoptotic cells are bright blue fluorescence due to their chromatin fixation, dense and concentrated nuclei.
MCF-7 was treated with 0, 5, 10, 20 μM of CH-f and CH-j for 24 h, Hoechst 33258 fluorescence staining, and cell morphological changes were shown in FIG. 3-1. […] CH-f and CH-j are completely different from the cytotoxic drug HCPT, which appears to be apoptotic at low doses and necrotic at high doses in BGC-823.
FIG. 3-1 Hoechst 33258 staining results for MCF-7.

Bcl-2 = Bcl-2 expression in MCF-7; assay type: cell-based; conditions: 10 μM for 24 h
[14] = organic solvent or mixture, Octanol, 37° C., read-out: Solubility in Octanol

CDK1, sequence (P06493 whole entry, species assumed): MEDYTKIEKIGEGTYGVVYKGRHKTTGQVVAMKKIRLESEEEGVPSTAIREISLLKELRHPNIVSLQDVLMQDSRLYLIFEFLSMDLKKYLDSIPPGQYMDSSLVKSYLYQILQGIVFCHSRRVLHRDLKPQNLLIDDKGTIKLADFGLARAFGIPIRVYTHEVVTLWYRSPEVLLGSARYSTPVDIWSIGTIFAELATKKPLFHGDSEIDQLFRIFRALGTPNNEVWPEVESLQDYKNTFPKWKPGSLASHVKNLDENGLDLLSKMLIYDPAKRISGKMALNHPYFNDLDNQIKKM
CDK1, sequence (P14635 whole entry partner, species assumed): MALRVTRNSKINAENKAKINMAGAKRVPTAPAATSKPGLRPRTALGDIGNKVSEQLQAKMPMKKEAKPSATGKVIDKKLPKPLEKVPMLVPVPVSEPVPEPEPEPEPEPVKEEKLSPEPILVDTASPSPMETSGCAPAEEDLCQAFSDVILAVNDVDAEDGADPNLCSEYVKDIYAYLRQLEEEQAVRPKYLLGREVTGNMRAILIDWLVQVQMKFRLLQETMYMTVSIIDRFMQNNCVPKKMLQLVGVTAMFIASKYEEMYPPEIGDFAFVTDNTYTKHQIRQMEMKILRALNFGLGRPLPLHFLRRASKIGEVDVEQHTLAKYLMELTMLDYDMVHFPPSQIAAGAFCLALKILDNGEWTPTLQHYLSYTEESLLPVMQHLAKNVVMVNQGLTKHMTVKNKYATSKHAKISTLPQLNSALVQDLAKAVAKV

- solubility [1, 14]: 377 µg/mL (≈ 983 µM)
- solubility ([1]; water, 37° C., text values of BA-j and BA-f, read-out: Solubility in water): 77 µg/mL (≈ 201 µM)
- logP (log P in Octanol/Water): 0.69
- pKa (pKa): 5.5
- IC50 (H-460): 13.7 ± 1.83 µM
- IC50 (Hep G2): 15.7 ± 1.3 µM
- IC50 (MCF-7 [3]): 10.6 ± 0.3 µM
- IC50 (PC-3): 12.8 ± 2.06 µM
- IC50 (BGC-823): 12.3 ± 1.73 µM
- IC50 [4]: 4.7 µg/mL
- IC50 ([4]; MTT, 48 h): 12.3 µM
- fraction unbound ([6]; average of 3 concentrations, read-out: Protein binding rate AV (converted)): 0.082
- fraction unbound at 12.5 μg/ml ([6]; drug concentration 12.5 μg/ml): 0.067
- fraction unbound at 25 μg/ml ([6]; drug concentration 25 μg/ml): 0.075
- fraction unbound at 50 μg/ml ([6]; drug concentration 50 μg/ml): 0.104
- Reversie binding rate AV (plasma proteins; average of 3 concentrations): 20.1%
- Reversie binding rate (plasma proteins; drug concentration 12.5 μg/ml): 19.1%
- Reversie binding rate (plasma proteins; drug concentration 25 μg/ml): 21.0%
- Reversie binding rate (plasma proteins; drug concentration 50 μg/ml): 20.2%
- V d ([7]; oral): 12.6 L
- t1/2β ([7]; oral): 4.2 h
- Tmax ([7]; rhesus, monkey, urine, po, read-out: T max (Tmax1)): 2 h
- Cmax ([7]; rhesus, urine, oral): 25.4 µM
- AUC(0-inf) [10]: 71.5 µM·h
Compound: O=c1cc(-c2ccccc2)oc2c(CN3CCC(O)CC3)c(O)c(O)c(O)c12 [BA-j, 5,6,7-trihydroxy-8-(4-hydroxy-piperidin-1-ylmethyl)-2-phenyl-chromen-4-one, reference compound]
- Dose dependence of H2O2 level [2]: significant dose-dependent manner, with mass apoptosis and without necrosis
- Autophagy (MCF-7 [5]): without
- Detection of prototype drug in blood, urine, tissues [8]: prototype drug can not be detected in the tissues
- CDK1 50% inhibitory concentration (CDK1): 300 nM
- V d [9]: 12.6 L
- Glucose aldehyde acid metabolism [11]: < 5%

Compound: CN1CC[C@H](c2c(O)cc(O)c3c(=O)cc(-c4ccccc4Cl)oc23)[C@H](O)C1 [Flavopiridol]
- Intravenous drip steady plasma concentration [12]: 0.27 µM

- BCS class [1]: BCS I
- Solubility in water relative to BA-f ([1]; 37° C.): about 1000 times
- Solubility in Octanol relative to BA analogue ([1]; CH-j vs BA-j, CH-f vs BA-f, 37° C.): about 20 times
- solubility [1, 14]: 5510 µg/mL (≈ 13500 µM)
- solubility ([1]; water, 37° C., read-out: Solubility in H2O): 564 µg/mL (≈ 1380 µM)
- logP (log P in Octanol/Water): 0.99
- pKa (pKa): 4.9
- IC50 (H-460): 5.6 ± 1.33 µM
- IC50 (Hep G2): 6.1 ± 1.45 µM
- IC50 (MCF-7 [3]): 5.2 ± 1.24 µM
- IC50 (PC-3): 5.1 ± 1.17 µM
- IC50 (BGC-823): 5.2 ± 1.21 µM
- IC50 [4]: 2.3 µg/mL
- IC50 ([4]; MTT, 48 h): 5.6 µM
- CDK1 inhibition, times stronger than BA-j (CDK1): about 2 times
Compound: CC(=O)c1c(O)c(CN2CCN(C)CC2)c2oc(-c3ccccc3)cc(=O)c2c1O [CH-f, 6-Acetyl-5,7-dihydroxy-8-(4-methylpiperazin-1-ylmethyl)-2-phenyl-chromen-4-one]
- Level of NO, red fluorescence (MCF-7 and COS-7): stronger red fluorescence than CH-j in MCF-7
- Anti-proliferative activity, times stronger than BA-j [4]: 2 times
- Anti-proliferative activity, times stronger than Chrysin [4]: 5 times
- Apoptosis by Hoechst 33258 staining (MCF-7 [13]): apoptosis cell percentage in dose dependent increase
- Autophagy (MCF-7 [5]): can cause autophagy
- Bcl-2 expression (Bcl-2): Bcl-2 expression can be suppressed
- CDK1 50% inhibitory concentration (CDK1): 130 nM
